For assay [1], the system named is adenine riboswitch pbuE/pbuE‡. Description: SPRINT assay with adenine riboswitch. The note with it: FIG. 3D. Format: biochemical. Here is the method:
(§1) SPRINT reactions. Pentauridine RNA oligonucleotides were labeled with carboxyfluorescein (FAM) or TEX 615 at the 5′-end and with Iowa Black FQ at the 3′-end. Fluorescence measurements were taken at wavelengths 490/525 nm (excitation/emission) when the FAM fluorophore was used. In reactions with flavin-containing ligands, TEX-labeled RNA oligos were used at the wavelengths 576/615 (excitation/emission). Fluorescence measurements were taken every 5 minutes.
For exemplary SPRINT assays, a master mix was first prepared and then mixed with the remaining reaction reagent components to yield a final reaction volume of 30 μL; fluorescent readings of the entire reaction volume were performed in Corning 384 Flat Bottom Black Polystyrol plates. This master mix (SPRINT buffer, 10×), for assays contemplated herein can include, but is not limited to: 700 mM Tris-HCl, pH 8.0, 700 mM NaCl, 1 mM EDTA, 140 mM β-mercaptoethanol, and 25 mM MgCl2. […]
The transcriptional response of the well-characterized guanine riboswitch xpt/pbuE*6U and the adenine-responsive riboswitch pbuE/pbuE‡ to their respective ligand was measured by SPRINT and the radiolabeling method. The radiolabeling method used ^32P-labeled ATP for single turnover transcription assays, subsequent separation of the transcripts on an acrylamide gel, exposure to a phospho screen and quantification of the band intensities. […]

Assay [2] concerns guanine riboswitch xpt/pbuE*6U. Description: SPRINT compound screen on guanine riboswitch. Format: biochemical. As to conditions: 10 μM and 1 mM for most compounds, solvent signal subtracted, FIG. 9A. Here is the method: Briefly, the transcriptional response of the guanine riboswitch xpt/pbuE*6U to 30 different compounds was measured at two different concentrations each (FIG. 9A and FIG. 10). The concentrations used were 10 μM and 1 mM for most compounds. The signal that was obtained from control experiments with the solvents DMSO or water was subtracted from all values.

For assay [3], the system named is serotonin riboswitch (P1 aptamer in expression platform pbuE′). Description: SPRINT assay with synthetic serotonin riboswitch. The note with it: FIG. 4D. Format: biochemical. Here is the method: as §1
(§2) For exemplary SPRINT assays, a master mix was first prepared and then mixed with the remaining reaction reagent components to yield a final reaction volume of 30 μL; fluorescent readings of the entire reaction volume were performed in Corning 384 Flat Bottom Black Polystyrol plates. This master mix (SPRINT buffer, 10×), for assays contemplated herein can include, but is not limited to: 700 mM Tris-HCl, pH 8.0, 700 mM NaCl, 1 mM EDTA, 140 mM β-mercaptoethanol, and 25 mM MgCl2. Aliquots of an exemplary 10× SPRINT buffer were stored at −20° C. and not allowed to undergo more than 10 freeze-thaw cycles.
(§3) The SELEX method (previously described) has been used to select the P1 aptamer that binds to the neurotransmitter serotonin (i.e. 5-hydroxytryptamine) and this aptamer was incorporated into the expression platform pbuE′ to generate a riboswitch for serotonin.

For assay [4], the system named is transcription and Cas13 reaction. The assay can be described thus: Effect of agents on fluorescent signal of one-batch and two-batch assays. As to conditions: FIGS. 6D-6F. The format is biochemical. Here is the method:
In another exemplary method, two-batch methods included, 30 μL in vitro transcription reactions carried out as described above but without addition of Cas13a, crRNA, labeled RNA oligos, RNase inhibitor. Then, the reaction was washed three times with 500 μL ddH2O using an centrifugal filter (0.5 ml, 10 kDa cutoff). After concentrating the solution to approximately 20 μL, aliquots of 6 μL were taken and added to a 24 μL of a SHERLOCK reaction (described below).
as §3

Assay [5] addresses T1, purine nucleoside phosphorylase (hPNP) (Homo sapiens, UniProt P00491).
T1 sequence (P00491 1-289): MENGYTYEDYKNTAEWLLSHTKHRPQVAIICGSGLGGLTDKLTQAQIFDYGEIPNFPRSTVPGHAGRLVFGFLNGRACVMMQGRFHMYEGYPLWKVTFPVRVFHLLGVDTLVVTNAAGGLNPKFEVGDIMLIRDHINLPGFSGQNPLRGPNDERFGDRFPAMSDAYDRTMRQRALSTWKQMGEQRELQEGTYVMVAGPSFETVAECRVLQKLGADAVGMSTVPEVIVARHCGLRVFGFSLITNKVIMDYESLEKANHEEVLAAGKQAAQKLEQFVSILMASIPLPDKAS
Description: Enzyme-coupled SPRINT assay (inosine to hypoxanthine, guanine riboswitch xpt/pbuE*6U). The format is biochemical. From the text: As part of the human purine metabolism, the enzyme purine nucleoside phosphorylase (hPNP) can catalyze the phosphorylation of the ribose moiety of various purines and thereby remove the sugar from the nucleobase. The conversion of deoxyguanosine to deoxyguanine by hPNP can be inhibited with nucleoside analogs such as Immucillin-H (forodesine) which leads to accumulation of deoxyguanosine and consequent apoptosis in activated T-cells. Therefore, hPNP is an important drug target for the treatment for example, of leukemia, arthritis, multiple sclerosis and transplant rejection.
In these systems, the conversion of inosine to hypoxanthine via hPNP was coupled to the SPRINT reaction in a one-batch buffer system using the guanine riboswitch xpt/pbuE*6U (FIG. 9D).

In assay [6] the test system is SPRINT assay without riboswitch (constitutively transcribed Cas13a target). The assay can be described thus: SPRINT control screen with constitutive promoter template (PAINS identification). The note with it: constitutive promoter template, FIG. 9B.
Description: The master mix was gently mixed by pipetting up and down and incubated at 37° C. for 15 minutes to allow binding of crRNA to Cas13a protein and the microwell plate was prepared by adding 3 μL of 10× ligand to the wells. The reaction was initiated by addition of rNTPs to the master mix to a concentration of 20 μM and then 27 μL of the complete master mix were added to each well and pipetted up and down to mix with the ligand in the wells. The plate was covered with an optical adhesive film to prevent evaporation of the sample while taking fluorescence measurements in a plate reader that was preheated to 37° C.
The test system of assay [7] is flavin mononucleotide (FMN) riboswitch ribD/pbuE*7U. Description: SPRINT assay with FMN riboswitch. The format is biochemical, B. subtilis. The note with it: 10 mM MgCl2, FIG. 4B. Here is the method:
as §1, §2
Initially, the observed ligand-dependent induction of the FMN riboswitch was very low. To improve this, the magnesium concentration in the SPRINT reaction was increased. […] Therefore, SPRINT reactions with the ribD/pbuE*7U riboswitch were conducted at 10 mM MgCl2 in these exemplary studies.

In assay [8] the test system is FMN riboswitch ribB. As to conditions: E. coli ribB; cited from earlier work.
Assay [9] deals with FMN riboswitch. As to conditions: cited from earlier work.
Assay [10] has as its target zinc-responsive transcription factor smtB (Synechococcus elongatus, UniProt P30340). Description: biochemical. Here is the method:
In other exemplary methods, reactions with allosteric transcription factors (aTFs), ROSALIND reagent buffer (10× buffer containing, for assays contemplated herein, but not limited to: 400 mM Tris-HCl, pH 8.0, 200 mM NaCl, 20 mM spermidine, 100 mM DTT and 80 mM MgCl2) were used. The buffer was prepared fresh or stored as single-use aliquots at −80° C. […] The final concentration of the aTF monomers was either 2.5 μM tetR or 10 μM smtB. The master mix was incubated for 15 minutes at 37° C. which allows the aTFs to bind to the operator sequence.
In another exemplary method, bacterial transcription can be regulated by allosteric transcription factors (aTFs), such as activators or repressors, which have previously been used for small molecule detection. Another system (“ROSALIND”) enabled rapid detection of compounds via aTFs. […] The ROSALIND buffer system differs from the SPRINT or SHERLOCK buffer. Therefore, it was tested whether aTF-based ROSALIND reactions could be integrated with the Cas13a-based detection method. To simplify the system, the inorganic pyrophosphatase (IPPase) enzyme was first removed from the ROSALIND system. IPPase was used in transcription reactions to degrade pyrophosphate which was a reaction product of the RNA polymerase and can inhibit the reaction. […] Adaptions included reducing the concentrations of rNTP from 2.85 mM to 40 μM, DNA template from 25 to 15 nM, and T7 RNAP from 10 to 6.7 ng/μL.
The responses of the de-repressors tetR and smtB were measured with SPRINT.

These results are taken from patent publication US20230279482A1, “COMPOSITIONS, METHODS AND USES FOR QUANTIFYING TRANSCRIPTION AND BIOSENSING OF SMALL MOLECULES USING A NOVEL TYPE VI CRISPR-CAS ASSAY” (THE REGENTS OF THE UNIVERSITY OF COLORADO, A BODY CORPORATE, priority 2020, published 2023).

Sequence of zinc-responsive transcription factor smtB (P30340 whole entry): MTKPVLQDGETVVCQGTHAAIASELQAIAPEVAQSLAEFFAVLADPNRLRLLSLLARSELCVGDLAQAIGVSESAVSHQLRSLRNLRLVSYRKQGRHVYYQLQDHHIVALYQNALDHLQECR

As to `Nc1nc2nc[nH]c2c(=O)[nH]1` [guanine], the “response of adenine riboswitch to ligand” value in assay [1] is given as “not”. Besides, the “transcriptional response at low and high concentration” value (“transcriptional response” below) in assay [2] is “equally strong transcriptional activation at low and high concentrations”. As to `NCCc1c[nH]c2ccccc12` [tryptamine], the “discrimination by serotonin riboswitch” value in [3] is given as “discriminated specifically against”. In the case of `N[C@@H](Cc1c[nH]c2ccc(O)cc12)C(=O)O` [5-hydroxytryptophan], the “inhibitory effect on transcription and Cas13 reaction” value in assay [4] is reported as “did not cause inhibitory effects”. In the case of `OC[C@H]1O[C@@H](n2cnc3c(O)ncnc32)[C@H](O)[C@@H]1O` [inosine], the “hypoxanthine production by hPNP on titration” value in assay [5] (FIG. 9F) is “concentration-dependent increase”. With `O=c1[nH]cnc2c([C@@H]3N[C@H](CO)[C@@H](O)[C@H]3O)c[nH]c12` [Immucillin-H], the “effect on hPNP enzymatic activity” value in assay [5] (inhibitor at 100-fold lower concentration than substrate inosine, FIG. 9E) is “significant reduction in the enzymatic activity”. For `CNc1nc2nc[nH]c2c(=O)[nH]1` [N2-methylguanine], in assay [2], the “transcriptional response” value is “only caused a strong transcriptional response at high concentrations”. Moreover, the “interference with SPRINT assay (PAINS)” value in [6] is reported as “interfering compounds”. In the case of `O=c1cc(-c2cccs2)nc([C@H]2CCCN(Cc3cn(-c4ncccn4)cn3)C2)[nH]1` [ribocil-C], the “response / activation of FMN riboswitch” value in assay [7] is recorded as “no observable activation”. For the same compound, the “agonism of FMN riboswitch ribB” value in assay [8] is given as “strong agonist”. Besides, the “agonism of FMN riboswitch from F. nucleatum” value in assay [9] is listed as “strong agonist”. Regarding `Cc1cc2nc3c(=O)[nH]c(=O)nc-3n(C[C@H](O)[C@H](O)[C@H](O)COP(=O)(O)O)c2cc1C` [FMN, flavin mononucleotide], the EC50 in assay [7] (read-out: T50 value (ligand concentration at half-maximal activation of transcription)) was approximately 1.01 µM. `Nc1nc2c(c(=O)[nH]1)CC=N2` [7-deazaguanine]: in [2], the “transcriptional response” value is recorded as “some activation of transcription at low concentrations but no or reduced activation at high concentrations”. For the same compound, the “interference with SPRINT assay (PAINS)” value in [6] is recorded as “interfering compounds”. With `CNc1ncnc2nc[nH]c12` [N6-methyladenine], the “transcriptional response” value in [2] is “did not cause a transcriptional response at low or high concentrations”. As for `[Zn+2]` [zinc], the EC50 in assay [10] worked out at 4.8 ± 0.3 µM. Besides, the “selectivity versus control copper” value in assay [10] (FIG. 7C) is listed as “high selectivity”.

As for `NCCc1c[nH]c2ccc(O)cc12` [serotonin, 5-hydroxytryptamine], the EC50 in assay [3] (read-out: T50 value) worked out at 5 ± 3 µM. Also, the “inhibitory effect on transcription and Cas13 reaction” value in [4] was “specifically inhibited the transcription and also Cas13 reaction”. Regarding `Nc1ncnc2nc[nH]c12` [adenine], the “response of adenine riboswitch to ligand” value in [1] was “responded efficiently”. For the compound `Cc1cc2nc3c(=O)[nH]c(=O)nc-3n(C[C@H](O)[C@H](O)[C@H](O)COP(=O)(O)OP(=O)(O)OC[C@H]3O[C@@H](n4cnc5c(N)ncnc54)[C@H](O)[C@@H]3O)c2cc1C` [flavin adenine dinucleotide (FAD), flavin adenine dinucleotide], the “response / activation of FMN riboswitch” value in assay [7] is “low-affinity response”.
